How the values were obtained:
[1] = Stability of the compound in presence of light measured after 12 hrs; assay type: physicochemical; conditions: read-out: Stability
[2] = Volume of distribution at steady state in Han-Wistar rat at 1 mg/kg, iv by LC-MS/MS analysis; assay type: ADME, organism-based; conditions: in vivo, read-out: Vdss
[3] = Half life of the compound at pH 6 under oxidative condition; assay type: physicochemical
[4] = Protein binding in Han-Wistar rat plasma at 1 mg/kg, iv by LC-MS/MS analysis; assay type: ADME, organism-based; conditions: read-out: PPB (converted)
[5] = Half life in Han-Wistar rat at 1 mg/kg, iv by LC-MS/MS analysis; assay type: ADME, organism-based; conditions: in vivo
[6] = Clearance in Han-Wistar rat blood at 1 mg/kg, iv by LC-MS/MS analysis; assay type: ADME, organism-based; conditions: whole blood
[7] = Permeability of the compound by PAMPA; assay type: physicochemical; conditions: read-out: permeability
serum albumin = serum albumin (Homo sapiens, UniProt P02768); assay: Binding affinity to human serum albumin by HPLC analysis; assay type: ADME; conditions: read-out: PB (converted)
[8] = Lipophilicity, log D of the compound at pH 7.4 by RP-HPLC analysis; assay type: physicochemical; conditions: buffer
[9] = Protein binding in human plasma; assay type: ADME, cell-free; conditions: read-out: PPB (converted)
[10] = Solubility of the compound in saline measured after 24 hrs; assay type: physicochemical
[11] = target: T1, Kynurenine 3-monooxygenase (Homo sapiens, UniProt O15229)
[12] = target: T1, Kynurenine 3-monooxygenase; assay: Inhibition of full length human GST-tagged KMO expressed in baculovirus infected Sf9 insect cell membranes using kynurenine as substrate measured after 1 hr by RapidFire high-throughput mass spectrometric analysis

Sequence of serum albumin (P02768 whole entry): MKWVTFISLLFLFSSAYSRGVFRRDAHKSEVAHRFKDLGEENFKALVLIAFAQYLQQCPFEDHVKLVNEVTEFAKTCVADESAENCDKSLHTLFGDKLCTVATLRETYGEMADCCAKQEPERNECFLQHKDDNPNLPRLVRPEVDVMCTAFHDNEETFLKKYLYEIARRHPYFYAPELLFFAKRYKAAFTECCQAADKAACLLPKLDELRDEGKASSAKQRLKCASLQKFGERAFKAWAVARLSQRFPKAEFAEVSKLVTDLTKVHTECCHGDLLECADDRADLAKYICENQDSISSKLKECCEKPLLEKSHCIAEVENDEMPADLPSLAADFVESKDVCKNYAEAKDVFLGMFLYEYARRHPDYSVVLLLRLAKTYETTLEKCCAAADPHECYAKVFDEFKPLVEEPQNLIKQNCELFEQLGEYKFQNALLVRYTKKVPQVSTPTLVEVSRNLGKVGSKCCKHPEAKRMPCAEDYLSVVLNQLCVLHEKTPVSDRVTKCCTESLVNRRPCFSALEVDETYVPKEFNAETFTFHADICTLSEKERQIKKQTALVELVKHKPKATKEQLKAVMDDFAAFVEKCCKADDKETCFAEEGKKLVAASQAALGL
T1 sequence (O15229 whole entry): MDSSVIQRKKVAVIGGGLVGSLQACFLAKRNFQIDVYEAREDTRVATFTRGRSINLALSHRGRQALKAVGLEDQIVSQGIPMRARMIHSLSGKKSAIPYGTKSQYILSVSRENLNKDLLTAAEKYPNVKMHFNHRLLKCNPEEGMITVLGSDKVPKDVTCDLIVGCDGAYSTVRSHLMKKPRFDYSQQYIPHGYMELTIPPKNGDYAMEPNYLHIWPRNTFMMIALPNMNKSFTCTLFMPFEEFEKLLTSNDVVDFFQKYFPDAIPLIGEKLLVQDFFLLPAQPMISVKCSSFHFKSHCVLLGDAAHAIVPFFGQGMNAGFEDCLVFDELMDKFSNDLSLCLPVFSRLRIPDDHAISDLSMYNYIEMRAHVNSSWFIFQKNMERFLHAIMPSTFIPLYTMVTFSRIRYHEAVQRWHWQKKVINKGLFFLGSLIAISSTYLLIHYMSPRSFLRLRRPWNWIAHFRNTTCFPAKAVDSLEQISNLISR

Structure (SMILES) | Papp [7] [×10⁻⁶ cm/s] | fraction unbound (serum albumin) | logD [8] | fraction unbound [9] | also measured
O=C(O)CCn1c(=O)oc2cc(OCC3CC3)c(Cl)cc21 | – | – | – | – | remaining at 12 h [1]: 105%; Vd [2]: 0.26 L/kg; half-life [3]: > 1000 h; fraction unbound [4]: 0.098; half-life [5]: 0.68 h; clearance [6]: 4.1 mL/min/kg
C[C@@H](Oc1cc2c(cc1Cl)N(CCC(=O)O)C(=O)CO2)c1ccccn1 | – | – | 1.56 | 0.075 | –
CCOc1cc2oc(=O)n(CCC(=O)O)c2cc1Cl.NC(CO)(CO)CO | < 1 | 0.113 | 1.49 | 0.042 | solubility at 24 h [10]: > 1880 µg/mL
C[C@@H](Oc1cc2ccn(CCC(=O)O)c2cc1Cl)c1ccccn1 | – | – | 2.17 | – | –
Cc1ccc([C@@H](C)Oc2cc3onc(CCC(=O)O)c3cc2Cl)nc1.NC(CO)(CO)CO | – | 0.016 | 2.42 | 0.003 | solubility at 24 h [10]: > 860 µg/mL
Cc1ccc([C@@H](C)Oc2cc3onc(CCC(=O)O)c3cc2Cl)nn1.NC(CO)(CO)CO | – | – | – | – | solubility at 24 h [10]: 230 µg/mL
NC(CO)(CO)CO.O=C(O)CCn1c(=O)oc2cc(Cl)c(Cl)cc21 | – | – | – | – | solubility at 24 h [10]: 270 µg/mL
C[C@@H](Oc1cc2cnn(CCC(=O)O)c2cc1Cl)c1ccccn1 | – | – | 1.7 | 0.099 | –
C[C@@H](Oc1cc2onc(CCC(=O)O)c2cc1Cl)c1ccc(Cl)cn1.NC(CO)(CO)CO | – | 0.01 | 2.91 | 0.002 | solubility at 24 h [10]: > 620 µg/mL
C[C@@H](Oc1cc2onc(CCC(=O)O)c2cc1Cl)c1ccccn1.NC(CO)(CO)CO | – | – | 1.99 | 0.022 | solubility at 24 h [10]: > 7440 µg/mL
CCc1cc2oc(=O)n(CCC(=O)O)c2cc1Cl.NC(CO)(CO)CO | 1 to 2.2 | 0.026 | 1.94 | 0.013 | –
Cc1cc2oc(=O)n(CCC(=O)O)c2cc1Cl.NC(CO)(CO)CO | 0.3 to 1 | 0.05 | 1.26 | – | IC50 [11]: 631 nM; solubility at 24 h [10]: > 127000 µg/mL
CCOc1cc2oc(=O)n(CCC(=O)O)c2cc1Cl | – | – | – | – | remaining at 12 h [1]: 99.5%; Vd [2]: 0.36 L/kg; half-life [3]: > 1000 h; fraction unbound [4]: 0.184; half-life [5]: 0.43 h; clearance [6]: 16 mL/min/kg
COCCOc1cc2oc(=O)n(CCC(=O)O)c2cc1Cl.NC(CO)(CO)CO | < 0.3 | 0.558 | 0.88 | 0.293 | –
O=C(O)CCn1c(=O)oc2cc(OC3CC3)c(Cl)cc21 | – | – | – | – | remaining at 12 h [1]: 100%; Vd [2]: 0.29 L/kg; half-life [3]: > 1000 h; fraction unbound [4]: 0.097; half-life [5]: 0.39 h; clearance [6]: 9.4 mL/min/kg
Cc1ccc([C@@H](C)Oc2cc3onc(CCC(=O)O)c3cc2Cl)nn1 | – | 0.108 | 2.97 | 0.071 | remaining at 12 h [1]: 85.2%; IC50 [11]: 3.16 nM; Vd [2]: 1.1 L/kg; half-life [3]: > 1000 h; fraction unbound [4]: 0.067; half-life [5]: 1.5 h; clearance [6]: 12 mL/min/kg
C[C@@H](Oc1cc2oc(=O)n(CCC(=O)O)c2cc1Cl)c1ccccn1 | – | – | – | – | remaining at 12 h [1]: 99.2%; Vd [2]: 2.96 L/kg; half-life [3]: > 1000 h; fraction unbound [4]: 0.215; half-life [5]: 5.6 h; clearance [6]: 16.8 mL/min/kg
NC(CO)(CO)CO.O=C(O)CCn1c(=O)oc2cc(OCC3CCC3)c(Cl)cc21 | 1.2 | 0.019 | 2.9 | 0.019 | –
CC(C)Cc1cc2oc(=O)n(CCC(=O)O)c2cc1Cl.NC(CO)(CO)CO | < 1 | 0.008 | 3.03 | – | –
O=C(O)CCn1c(=O)oc2cc(Cl)c(Cl)cc21 | 2.4 | 0.037 | 1.61 | 0.018 | remaining at 12 h [1]: 41%; Vd [2]: 0.28 L/kg; half-life [3]: 334 h; fraction unbound [4]: 0.083; half-life [5]: 4.3 h; clearance [6]: 4.3 mL/min/kg
NC(CO)(CO)CO.O=C(O)CCn1c(=O)oc2cc(OCCN3CCCC3)c(Cl)cc21 | < 0.3 | 0.849 | -0.26 | – | –
Cc1ccc([C@@H](C)Oc2cc3onc(CCC(=O)O)c3cc2Cl)nc1 | – | – | – | – | remaining at 12 h [1]: 96.5%; Vd [2]: 0.31 L/kg; half-life [3]: > 1000 h; fraction unbound [4]: 0.009; half-life [5]: 3.6 h; clearance [6]: 1.1 mL/min/kg
C[C@@H](Oc1cc2onc(CCC(=O)O)c2cc1Cl)c1ccc(F)cn1 | – | 0.017 | 2.47 | – | –
O=C(O)CCn1c(=O)oc2cc(OCc3ccccn3)c(Cl)cc21 | – | – | – | – | Ki [12]: 1 nM
C[C@@H](Oc1cc2onc(CCC(=O)O)c2cc1Cl)c1ccc(Cl)cn1 | – | – | – | – | remaining at 12 h [1]: 99.5%; Vd [2]: 0.26 L/kg; half-life [3]: > 1000 h; fraction unbound [4]: 0.003; half-life [5]: 8.7 h; clearance [6]: 0.35 mL/min/kg

More lines, main results first:

Papp [7] [×10⁻⁶ cm/s] | fraction unbound (serum albumin) | logD [8] | fraction unbound [9] | Structure (SMILES) | also measured
3.1 | 0.06 | 1.98 | – | C[C@@H](Oc1cc2oc(=O)n(CCC(=O)O)c2cc1Cl)c1ccc(F)cn1.NC(CO)(CO)CO | –
< 0.3 | 0.409 | 0.83 | 0.319 | C[C@@H](Oc1cc2oc(=O)n(CCC(=O)O)c2cc1Cl)c1cccnn1 | IC50 [11]: 631 nM; IC50 [12]: 1.26 nM
< 0.3 | 0.11 | – | – | COc1cc2oc(=O)n(CCC(=O)O)c2cc1Cl | –
0.3 to 2 | 0.067 | 1.71 | 0.119 | C[C@@H](Oc1cc2oc(=O)n(CCC(=O)O)c2cc1Cl)c1ccccn1.NC(CO)(CO)CO | solubility at 24 h [10]: > 9500 µg/mL
< 0.3 | 0.227 | 1.11 | – | C[C@@H](Oc1cc2oc(=O)n(CCC(=O)O)c2cc1Cl)c1ncco1.NC(CO)(CO)CO | –
< 0.3 | 0.084 | 1.79 | – | C[C@H](Oc1cc2oc(=O)n(CCC(=O)O)c2cc1Cl)c1ccccn1.NC(CO)(CO)CO | –
< 0.3 | 0.129 | 1.86 | 0.183 | CC(Oc1cc2oc(=O)n(CCC(=O)O)c2cc1Cl)c1ccccn1.NC(CO)(CO)CO (configuration not stated) | –
2.1 | 0.068 | 2.12 | – | Cc1cccc([C@@H](C)Oc2cc3oc(=O)n(CCC(=O)O)c3cc2Cl)n1.NC(CO)(CO)CO | –
< 0.3 | 0.056 | 2.15 | – | Cc1ccnc([C@@H](C)Oc2cc3oc(=O)n(CCC(=O)O)c3cc2Cl)c1.NC(CO)(CO)CO | –
– | – | 1.81 | – | C[C@@H](Oc1cc2sc(=O)n(CCC(=O)O)c2cc1Cl)c1ccccn1 | –
2.2 | – | 2.02 | 0.022 | Cc1ccc([C@@H](C)Oc2cc3oc(=O)n(CCC(=O)O)c3cc2Cl)nc1.NC(CO)(CO)CO | –
6 | 0.021 | 2.65 | 0.01 | C[C@@H](Oc1cc2oc(=O)n(CCC(=O)O)c2cc1Cl)c1ccc(Cl)cn1.NC(CO)(CO)CO | –
– | – | – | 0.024 | Cc1cc2oc(=O)n(CCC(=O)O)c2cc1Cl | remaining at 12 h [1]: 100%; Vd [2]: 0.52 L/kg; half-life [3]: > 1000 h; fraction unbound [4]: 0.045; half-life [5]: 3.7 h; clearance [6]: 4.7 mL/min/kg
– | 0.017 | 2.71 | – | O=C(O)CCn1c(=O)oc2cc(OCc3ccccc3)c(Cl)cc21 | –
< 0.3 | 0.409 | 0.83 | – | C[C@@H](Oc1cc2oc(=O)n(CCC(=O)O)c2cc1Cl)c1ncccn1.NC(CO)(CO)CO | –
